Here are results for eight molecules from patent publication US9388136B2, “Tert-butyl N-[2-{4-[6-amino-5-(2,4-difluorobenzoyl)-2-oxopyridin-1(2H)-yl]-3,5-difluorophenyl}ethyl]-L-alaninate or a salt, hydrate or solvate thereof” (Chroma Therapeutics Ltd., priority 2012, dated 2016).

Each structure is given as a SMILES string. Like-named read-outs stand apart in the source and are kept apart here.

The test system of data set [1] is human whole blood. As to the kind of experiment: LPS-stimulation of human whole blood, TNF-α levels by ELISA. Format: cell-based. To be noted: LPS 100 ng/ml, 6 hrs, read-out: D—ester TNF-alpha inhibition (human whole blood), IC50. As to the method: Whole blood was taken by venous puncture using heparinised vacutainers (Becton Dickinson) and diluted in an equal volume of RPMI1640 tissue culture media (Sigma). 100 μl was plated in V-bottomed 96 well tissue culture treated plates. 2 hrs after the addition of the inhibitor in 100 μl of RPMI1640 media, the blood was stimulated with LPS (E coli strain 005:B5, Sigma) at a final concentration of 100 ng/ml and incubated at 37° C. in 5% CO2 for 6 hrs. TNF-α levels were measured from cell-free supernatants by sandwich ELISA (R&D Systems #QTA00B).
On the technique in general: ELISA stands for enzyme-linked immunosorbent assay.

Data set [2] addresses p38 MAP Kinase a (Homo sapiens (Human), UniProt Q16539). In words: p38 MAP kinase enzyme assay (radiometric filter-binding). Format: biochemical. The method, then: The ability of compounds to inhibit p38 MAP a Kinase activity was measured in an assay performed by Upstate (Dundee UK). In a final reaction volume of 25 μL, p38 MAP Kinase a (5-10 mU) is incubated with 25 mM Tris pH 7.5, 0.002 mMEGTA, 0.33 mg/mL myelin basic protein, 10 mM MgAcetate and [g-33p-ATP] (specific activity approx. 500 cpm/pmol, concentration as required). The reaction is initiated by the addition of the MgATP mix. After incubation for 40 minutes at room temperature, the reaction is stopped by the addition of 5 μL of a 3% phosphoric acid solution. 10 μL of the reaction is then spotted onto a P30 filtermat and washed three times for 5 minutes in 75 mM phosphoric acid and once in methanol prior to drying and scintillation counting.
Duplicate data points are generated from a 1/3 log dilution series of a stock solution in DMSO. Nine dilutions steps are made from a top concentration of 10 μM, and a ‘no compound’ blank is included. The standard radiometric filter-binding assay is performed at an ATP concentration at, or close to, the Km. Data from scintillation counts are collected and subjected to free-fit analysis by Prism software.

The test system of data set [3] is THP-1 cells. As to the kind of experiment: LPS-stimulation of THP-1 cells, TNF-α levels by ELISA. It counts as cell-based. To be noted: LPS 1 μg/ml, 6 hrs, read-out: C—ester TNF-alpha inhibition (THP-1 cells), IC50. The method, then: THP-1 cells were plated in 100 μl at a density of 4×10^4 cells/well in V-bottomed 96 well tissue culture treated plates and incubated at 37° C. in 5% CO2 for 16 hrs. 2 hrs after the addition of the inhibitor in 100 μl of tissue culture media, the cells were stimulated with LPS (E coli strain 005:B5, Sigma) at a final concentration of 1 μg/ml and incubated at 37° C. in 5% CO2 for 6 hrs. TNF-α levels were measured from cell-free supernatants by sandwich ELISA (R&D Systems #QTA00B).

A short description of data set [4]: Plasma exposure in mice. It counts as in vivo. To be noted: mouse, po 10 mg/kg, male CD1 mice. As to the method:
The compounds were formulated in 8% DMSO, 92% 11.25% hydroxypropyl-β-cyclodextrin in water using the following procedure: the compounds were fully dissolved in 100% DMSO and then the hydroxypropyl-β-cyclodextrin solution added. The fine precipitate formed was re-dissolved by the addition of aqueous HCl and the pH adjusted to 4 with aqueous sodium hydroxide.
Each compound was administered orally at 10 mg/kg, in a total dose volume of 5 ml/kg, to male CD1 mice ([…]). Three mice were used for each time point. Blood samples were taken at the following time points: 5, 15, 30, 60, 120, 240 and 360 minutes, by terminal cardiac puncture, under halothane/isofluorane anaesthesia. Blood samples were collected into pre-chilled tubes containing NaF/EDTA and mixed. Samples were spun at 7-7.5×g for 2 minutes. The plasma was aspirated and frozen.
Plasma samples were prepared by precipitation of protein using three volumes of acetonitrile containing the internal standard. The supernatants were analysed by LCMS (Sciex API 3000, HP1100 binary pump, CTC PAL). The chromatography was based on an Acentis C8 (50×2.1 mm) column and a mobile phase of 5-95% acetonitrile in water/0.1% formic acid.
Exposure (AUC) was calculated from the plasma concentration versus time profile using PK Solutions 2.0 (Summit Research Services, Montrose, Colo.).

Where [5] appears, read: corresponding acid (hydrolysis product of the named ester) tested, read-out: B—acid enzyme assay (p38 kinase A (invitrogen)), IC50.
The mark [6] stands for this setting: ester tested, read-out: A—ester enzyme assay (p38 kinase A (invitrogen)), IC50.

As usually defined, the IC50 is the concentration that inhibits the measured activity by half. Broadly, the AUC(0-t) is exposure summed from dosing to a finite time, without extrapolation to infinity. A lower AUC(0-t) goes with low exposure.

Sequence of p38 MAP Kinase a (Q16539 whole entry): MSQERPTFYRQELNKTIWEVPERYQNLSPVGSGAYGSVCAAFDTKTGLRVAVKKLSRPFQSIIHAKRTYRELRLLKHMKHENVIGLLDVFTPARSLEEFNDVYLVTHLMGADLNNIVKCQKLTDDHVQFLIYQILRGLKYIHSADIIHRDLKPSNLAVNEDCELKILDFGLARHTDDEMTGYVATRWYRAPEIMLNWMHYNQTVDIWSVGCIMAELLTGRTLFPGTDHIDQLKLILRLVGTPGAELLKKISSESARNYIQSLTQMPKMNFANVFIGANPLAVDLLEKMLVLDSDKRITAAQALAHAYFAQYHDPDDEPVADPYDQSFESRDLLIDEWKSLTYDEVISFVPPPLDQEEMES

Take `C[C@H](NCCc1ccc(-n2c(N)c(C(=O)c3ccc(F)cc3F)ccc2=O)cc1)C(=O)OC(C)(C)C` [tert-butyl N-[2-(4-{6-amino-5-[(2,4-difluoro-phenyl)carbonyl]-2-oxopyridin-1(2H)-yl}phenyl)ethyl]-L-alaninate]: the half-maximal inhibitory concentration (IC50) in data set [1] (Homo sapiens) turned out to be 195 nM; in data set [2] (setting [5]), 58 nM; in data set [2] (setting [6]) it was 58 nM; in data set [3] (Homo sapiens, THP-1), 2.8 nM.
For `CC(C)C[C@H](NCCc1ccc(-n2c(N)c(C(=O)c3ccc(F)cc3F)ccc2=O)cc1)C(=O)OC(C)(C)C` [tert-Butyl N-[2-(4-{6-amino-5-[(2,4-difluoro-phenyl)carbonyl]-2-oxopyridin-1(2H)-yl}phenyl)ethyl]-L-leucinate], the concentration for half-maximal inhibition (IC50) in data set [1] (Homo sapiens) is 638 nM; in data set [2] (setting [5]), 58 nM; in data set [2] (setting [6]) it was 330 nM; in data set [3] (Homo sapiens, THP-1), 2.4 nM.
Regarding `C[C@@H](O)[C@H](NCCc1ccc(-n2c(N)c(C(=O)c3ccc(F)cc3F)ccc2=O)cc1)C(=O)OC1CCCC1` [Cyclopentyl N-[2-(4-{6-amino-5-[(2,4-difluoro-phenyl)carbonyl]-2-oxopyridin-1(2H)-yl}phenyl)ethyl]-L-threoninate], the IC50 in data set [1] (Homo sapiens) was found to be 1200 nM; in data set [2] (setting [5]) it was 56 nM; in data set [2] (setting [6]), 68 nM; in data set [3] (Homo sapiens, THP-1), 1.8 nM.
On to `CC(C)C[C@H](NCCc1cc(F)c(-n2c(N)c(C(=O)c3ccc(F)cc3F)ccc2=O)c(F)c1)C(=O)OC1CCCC1` [cyclopentyl N-(2-{4-[6-amino-5-(2,4-difluoro-benzoyl)-2-oxopyridin-1(2H)-yl]-3,5-difluoro-phenyl}ethyl)-L-leucinate], for which the IC50 in data set [1] (Homo sapiens) worked out at 54 nM; in data set [2] (setting [5]) it was 1 nM; in data set [2] (setting [6]) it was 231 nM; in data set [3] (Homo sapiens, THP-1) it was 0.5 nM. This molecule had an exposure AUC(0-t) in data set [4] of 14 ng·h/mL.
Turning to `CC(C)(C)OC[C@H](NCCc1cc(F)c(-n2c(N)c(C(=O)c3ccc(F)cc3F)ccc2=O)c(F)c1)C(=O)OC1CCCC1` [Cyclopentyl N-(2-{4-[6-amino-5-(2,4-difluoro-benzoyl)-2-oxopyridin-1(2H)-yl]-3,5-difluorophenyl}ethyl)-O-tert-butyl-L-serinate], the IC50 in data set [1] (Homo sapiens) amounted to 1300 nM; in data set [2] (setting [5]) it was 1 nM; in data set [2] (setting [6]) it was 57 nM; in data set [3] (Homo sapiens, THP-1) it was 5.7 nM.
With `C[C@H](NCCc1cc(F)c(-n2c(N)c(C(=O)c3ccc(F)cc3F)ccc2=O)c(F)c1)C(=O)OC(C)(C)C` [tert-Butyl N-(2-{4-[6-amino-5-(2,4-difluorobenzoyl)-2-oxopyridin-1(2H)-yl]-3,5-difluorophenyl}ethyl)-L-alaninate], the concentration for half-maximal inhibition (IC50) came to 26 nM in data set [1] (Homo sapiens); 1 nM in data set [2] (setting [5]); 12 nM in data set [2] (setting [6]); 1.6 nM in data set [3] (Homo sapiens, THP-1). The area under the curve AUC(0-t) in data set [4] came to 102 ng·h/mL.
Consider `CC(C)C[C@H](NCCc1cc(F)c(-n2c(N)c(C(=O)c3ccc(F)cc3F)ccc2=O)c(F)c1)C(=O)OC(C)(C)C` [tert-butyl N-(2-{4-[6-amino-5-(2,4-difluoro-benzoyl)-2-oxopyridin-1(2H)-yl]-3,5-difluorophenyl}ethyl)-L-leucinate], for which the concentration for half-maximal inhibition (IC50) in data set [1] (Homo sapiens) stood at 191 nM; in data set [2] (setting [5]), 1 nM; in data set [2] (setting [6]), 120 nM; in data set [3] (Homo sapiens, THP-1), 3 nM. Also, the area under the curve AUC(0-t) in data set [4] is 75 ng·h/mL.
Take `Nc1c(C(=O)c2ccc(F)cc2F)ccc(=O)n1-c1c(F)cc(CCN[C@@H](C(=O)OC2CCCC2)c2ccccc2)cc1F` [Cyclopentyl (2R)-[(2-{4-[6-amino-5-(2,4-difluoro-benzoyl)-2-oxopyridin-1(2H)-yl]-3,5-difluorophenyl}ethyl)amino] (phenyl)acetate]: the IC50 in data set [1] stood at 4110 nM; in data set [2] (setting [6]) it was 47 nM; in data set [3], 21 nM.
